Source: patent US7192581B2, “Lactobacillus reuteri useful as probiotics” (Probionic Corp., priority 2001, dated 2007)
≈ marks a conversion by molar mass, not a printed value. Where two headings read alike, the source gives them in different places.

Test system: #Probio-16
Experiment: Antibiotic susceptibility of #Probio-16 (paper disc)
Assay type: cell-based, Lactobacillus reuteri
Description: Antibiotic susceptibility of #Probio-16 was assayed according to Microbiology procedures handbook vol. 1 (Henry D. Isenberg, ASM) and Korean Pat. Publication No. 91-4366. In this regard, 13 antibiotics, that is, cephalexcin, erythromycin, flumequinine, furazolidine, gentamycin, procaine, penicillin G, norflaxacine, spectinomycin, tetracycline, tiamuline, neomycin, chloramphenicol, and kanamycin, were dissolved in appropriate solvents. By concentrations, the prepared antibiotic solutions were inoculated in an amount of 30 μl onto a paper disc which was then allowed to stand for 1 hour at 4° C. Inhibitory circles emerging after 24 hours of anaerobic incubation were measured.
Assay of #Probio-16 for antibiotic susceptibility was conduced according to Microbiology Procedures Handbook vol. 1 (Henry D. Isenberg, ASM) and Korean Pat. Publication No. 91-4366, with regard to 13 antibiotics, including cephalexcin, erythromycin, flumequinine, furazolidine, gentamycin, procaine, penicillin G, norflaxacine, spectinomycin, tetracycline, tiamuline, neomycin, chloramphenicol, and kanamycin. By concentrations, antibiotic solutions were inoculated in an amount of 30 μl onto a paper disc which was then allowed to stand for 1 hour at 4° C. Inhibitory circles emerging after 24 hours of anaerobic incubation were measured.

[1] = against #Probio-16, 24 hours anaerobic incubation (Table 3)
[2] = against Lactobacillus reuteri Probio-16
[3] = Limosilactobacillus reuteri, against #Probio-16, 24 hours anaerobic incubation (Table 3), read-out: MIC
[4] = Limosilactobacillus reuteri, against Lactobacillus reuteri Probio-16, read-out: minimal inhibitory concentration (MIC)
[5] = against Lactobacillus reuteri Probio-16 (unit not given)

Row | Compound | MIC [1] [µg/mL] | minimal inhibitory concentration (MIC) [2] | MIC [3] [µg/mL] | MIC [4] [µg/mL] | minimal inhibitory concentration (MIC) [5]
1 | Gentamycine | 100 | 100 µg/mL |  |  | 
2 | O=C1OCCN1/N=C/c1ccc([N+](=O)[O-])o1 [Furazolidine] | 90 (≈ 400 µM) | 90 µg/mL (≈ 400 µM) |  |  | 
3 | C=C[C@]1(C)C[C@@H](OC(=O)CSCCN(CC)CC)[C@]2(C)[C@H](C)CC[C@]3(CCC(=O)[C@H]32)[C@@H](C)[C@@H]1O [Tiamuline] |  |  | 300 (≈ 608 µM) | 300 (≈ 608 µM) | 
4 | CCn1cc(C(=O)O)c(=O)c2cc(F)c(N3CCNCC3)cc21 [Norflaxacine] | 1000 (≈ 3130 µM) |  |  |  | 100
5 | CN[C@@H]1[C@H](O)[C@H](NC)[C@H]2O[C@@]3(O)C(=O)C[C@@H](C)O[C@H]3O[C@@H]2[C@H]1O [Spectinomycine] |  |  | 2500 (≈ 7520 µM) | 2500 (≈ 7520 µM) | 
6 | NC[C@H]1O[C@H](O[C@H]2[C@H](O)[C@@H](O[C@H]3O[C@H](CO)[C@@H](O)[C@H](N)[C@H]3O)[C@H](N)C[C@@H]2N)[C@H](O)[C@@H](O)[C@@H]1O [Kanamycine] |  |  | 4000 (≈ 8260 µM) | 4000 (≈ 8260 µM) | 
7 | CC[C@H]1OC(=O)[C@H](C)[C@@H](O[C@H]2C[C@@](C)(OC)[C@@H](O)[C@H](C)O2)[C@H](C)[C@@H](O[C@@H]2O[C@H](C)C[C@H](N(C)C)[C@H]2O)[C@](C)(O)C[C@@H](C)C(=O)[C@H](C)[C@@H](O)[C@]1(C)O [Erythromycin] |  |  | 4 (≈ 5.45 µM) | 4 (≈ 5.45 µM) | 
8 | NC[C@@H]1O[C@H](O[C@H]2[C@@H](O)[C@H](O[C@@H]3[C@@H](O)[C@H](N)C[C@H](N)[C@H]3O[C@H]3O[C@H](CN)[C@@H](O)[C@H](O)[C@H]3N)O[C@@H]2CO)[C@H](N)[C@@H](O)[C@@H]1O [Neomycine] | 100 (≈ 163 µM) | 100 µg/mL (≈ 163 µM) |  |  | 
9 | CC1(C)S[C@@H]2[C@H](NC(=O)Cc3ccccc3)C(=O)N2[C@H]1C(=O)O.CCN(CC)CCOC(=O)c1ccc(N)cc1 [procaine Penicilline G] | 4 |  |  |  | 4
10 | CC1CCc2cc(F)cc3c(=O)c(C(=O)O)cn1c23 (centres unmarked) [Flumequinine] | 4000 (≈ 15300 µM) | 4,000 μg/ml |  |  | 
11 | CC1=C(C(=O)O)N2C(=O)[C@@H](NC(=O)[C@H](N)c3ccccc3)[C@H]2SC1 [Cephalexcin] | 90 (≈ 259 µM) | 90 µg/mL (≈ 259 µM) |  |  | 
12 | O=C(N[C@H](CO)[C@H](O)c1ccc([N+](=O)[O-])cc1)C(Cl)Cl [Chloramphenicol] |  |  | 200 (≈ 619 µM) | 200 (≈ 619 µM) | 
13 | CN(C)[C@@H]1C(O)=C(C(N)=O)C(=O)[C@@]2(O)C(O)=C3C(=O)c4c(O)cccc4[C@@](C)(O)[C@H]3C[C@@H]12 [Tetracycline] |  |  | 1500 (≈ 3380 µM) | 1500 (≈ 3380 µM) | 
